# From patent EP3456336B1, “A CELERY SEED AND SOPHORA FLOWER BUD EXTRACT AND MEDICAL USE THEREOF” (Beijing Tianheng Junwei Pharmaceutical Tech Co., Ltd, priority 2016, dated 2017)
# Assays:
# Type in all cases: in vivo, SD rats
# Conditions in all cases: Benzbromarone group 20 mg/kg
# hyperuricemia model [1] = experiment: Uric acid reducing effect: serum uric acid in high-fructose hyperuricemia model rats (uricase colorimetric method)
# Procedure: (§1) SD rats were stratified by weight using random number table method, and each layer was divided into a normal group (10 rats), a fructose modeling group (50 rats) and a purine modeling group (24 rats) using random number table method. Tap water was administered to the normal group; a 10% (w/v) fructose solution was administered to the fructose modeling group for modeling; and for the purine modeling group, tap water was administered for drinking, 500 mg/kg of hypoxanthine + 100 mg/kg of nicotinic acid was administered by gastric perfusion according to body weight once a day, and the volume of perfusion was 10 ml/kg. The food and water consumption of rats were recorded daily, the body weights were weighed every 7 days, and blood was taken by shearing the tail tip on the next day of weighing. […] Among them, 0.5% CMC-Na was administered to the normal group and the model group by gastric perfusion, and respective drugs dissolved in 0.5% CMC-Na were administered to the other administration groups by gastric perfusion. The perfusion was performed once every morning. […] During the experiment, since there was no significant difference in blood uric acid level between the purine modeling group and the normal group from beginning to end, the modeling of the hyperuricemia model in rats was not successful, therefore, the rats were not further grouped. Table 1 Gastric perfusion dosages of rats in each group Every 7 days during the experiment, the body weights of the animals were weighed and recorded, blood was taken from the tail vein, and serum was separated by centrifugation. The uric acid (UA), urea nitrogen (BUN), creatinine (CRE), xanthine oxidase (XOD), adenosine deaminase (ADA) and guanine deaminase (GuDa) in serum were detected. On day 35 of the experiment, the 24-hour urine of the rats was collected, the urine volume was measured, the pH value was determined, and the urinary uric acid level, urinary creatinine level, and urinary urea nitrogen level were detected. After the experiment was terminated, the rats were sacrificed, and the right kidneys were taken and weighed. The specific determination method of each index was as follows. • ① Detecting serum uric acid and urinary uric acid by uricase colorimetric method: uric acid was catalyzed by uricase to produce allantoin and hydrogen peroxide (H2O2); […] A serum or urine sample was taken. […] Jaffe reaction occurred between the creatinine in the supernatant of serum from which protein was removed or the creatinine in clear urine and picric acid to produce an orange adduct. A serum or urine sample was taken. […] A serum or urine sample was taken. […] In the presence of an electron acceptor and a developer, a purple red conjugate was produced, and the activity of xanthine oxidase could be calculated according to the amount of the latter produced. A serum sample was taken. According to the operating instruction of Xanthine Oxidase Assay Kit, under the conditions of a cuvette the light path of 1 cm and a wavelength of 530 nm, double distilled water was used for zero calibration; the absorbance was determined by a UV spectrophotometer, and the activity of xanthine oxidase was obtained. • ⑤ Detecting adenosine deaminase (ADA) by enzymatic colorimetric method: adenine riboside was catalyzed by adenosine deaminase to hydrolyze and produce hypoxanthine riboside and ammonia, and the produced ammonia was developed. Therefore, the activity of serum adenosine deaminase could be calculated. A serum sample was taken. […]
# [2] = Body weight of rats during the 35-day hyperuricemia experiment
# Procedure: (§2) SD rats were stratified by weight using random number table method, and each layer was divided into a normal group (10 rats), a fructose modeling group (50 rats) and a purine modeling group (24 rats) using random number table method. Tap water was administered to the normal group; a 10% (w/v) fructose solution was administered to the fructose modeling group for modeling; and for the purine modeling group, tap water was administered for drinking, 500 mg/kg of hypoxanthine + 100 mg/kg of nicotinic acid was administered by gastric perfusion according to body weight once a day, and the volume of perfusion was 10 ml/kg. The food and water consumption of rats were recorded daily, the body weights were weighed every 7 days, and blood was taken by shearing the tail tip on the next day of weighing.
# Among them, 0.5% CMC-Na was administered to the normal group and the model group by gastric perfusion, and respective drugs dissolved in 0.5% CMC-Na were administered to the other administration groups by gastric perfusion. The perfusion was performed once every morning. The dosages of administration were as follows: the dosage of benzbromarone was 20 mg/kg, the large-, medium- and small-dosages of the extract of the present disclosure were 1.9 g/kg, 0.95 g/kg, and 0.475 g/kg, respectively, the volume of administration was 15 ml/kg, and the experiment lasted for 35 days in total. During the experiment, since there was no significant difference in blood uric acid level between the purine modeling group and the normal group from beginning to end, the modeling of the hyperuricemia model in rats was not successful, therefore, the rats were not further grouped. Table 1 Gastric perfusion dosages of rats in each group
# Every 7 days during the experiment, the body weights of the animals were weighed and recorded, blood was taken from the tail vein, and serum was separated by centrifugation. The uric acid (UA), urea nitrogen (BUN), creatinine (CRE), xanthine oxidase (XOD), adenosine deaminase (ADA) and guanine deaminase (GuDa) in serum were detected. On day 35 of the experiment, the 24-hour urine of the rats was collected, the urine volume was measured, the pH value was determined, and the urinary uric acid level, urinary creatinine level, and urinary urea nitrogen level were detected. After the experiment was terminated, the rats were sacrificed, and the right kidneys were taken and weighed.
# hyperuricemia model [3] = experiment: Serum urea nitrogen (urease method) and serum creatinine (picric acid method) in hyperuricemia model rats
# Procedure: as §1
# [4] = tested on: adenosine deaminase (ADA); experiment: Serum adenosine deaminase activity in hyperuricemia model rats (enzymatic colorimetric method)
# Procedure: as §2, with “weighing. […] Table 1 Gastric perfusion dosages of rats in each group Every 7 days during the experiment, the body weights of the animals were weighed and recorded, blood was taken from the tail vein, and serum was separated by centrifugation. The uric acid (UA), urea nitrogen (BUN), creatinine (CRE), xanthine oxidase (XOD), adenosine deaminase (ADA) and guanine deaminase (GuDa) in serum were detected. […] In the presence of an electron acceptor and a developer, a purple red conjugate was produced, and the activity of xanthine oxidase could be calculated according to the amount of the latter produced. […]” for “weighing.”
# xanthine oxidase (XOD) = experiment: Serum xanthine oxidase activity in hyperuricemia model rats (enzymatic colorimetric method)
# Procedure: as §2, with “weighing. […] Table 1 Gastric perfusion dosages of rats in each group Every 7 days during the experiment, the body weights of the animals were weighed and recorded, blood was taken from the tail vein, and serum was separated by centrifugation. The uric acid (UA), urea nitrogen (BUN), creatinine (CRE), xanthine oxidase (XOD), adenosine deaminase (ADA) and guanine deaminase (GuDa) in serum were detected. […] In the presence of an electron acceptor and a developer, a purple red conjugate was produced, and the activity of xanthine oxidase could be calculated according to the amount of the latter produced. […]” for “weighing.”
# guanine deaminase (GuDa) = experiment: Serum guanine deaminase activity in hyperuricemia model rats (single enzyme reagent method)
# Procedure: SD rats were stratified by weight using random number table method, and each layer was divided into a normal group (10 rats), a fructose modeling group (50 rats) and a purine modeling group (24 rats) using random number table method. Tap water was administered to the normal group; a 10% (w/v) fructose solution was administered to the fructose modeling group for modeling; and for the purine modeling group, tap water was administered for drinking, 500 mg/kg of hypoxanthine + 100 mg/kg of nicotinic acid was administered by gastric perfusion according to body weight once a day, and the volume of perfusion was 10 ml/kg. The food and water consumption of rats were recorded daily, the body weights were weighed every 7 days, and blood was taken by shearing the tail tip on the next day of weighing. […] Among them, 0.5% CMC-Na was administered to the normal group and the model group by gastric perfusion, and respective drugs dissolved in 0.5% CMC-Na were administered to the other administration groups by gastric perfusion. The perfusion was performed once every morning. […] Table 1 Gastric perfusion dosages of rats in each group Every 7 days during the experiment, the body weights of the animals were weighed and recorded, blood was taken from the tail vein, and serum was separated by centrifugation. The uric acid (UA), urea nitrogen (BUN), creatinine (CRE), xanthine oxidase (XOD), adenosine deaminase (ADA) and guanine deaminase (GuDa) in serum were detected. On day 35 of the experiment, the 24-hour urine of the rats was collected, the urine volume was measured, the pH value was determined, and the urinary uric acid level, urinary creatinine level, and urinary urea nitrogen level were detected. […] In the presence of an electron acceptor and a developer, a purple red conjugate was produced, and the activity of xanthine oxidase could be calculated according to the amount of the latter produced. […] Therefore, the activity of serum adenosine deaminase could be calculated. […]
# hyperuricemia model [5] = experiment: 24-hour urine indices on day 35 in hyperuricemia model rats (volume, pH, uric acid, creatinine, urea nitrogen, clearances); design: Uric acid clearance / Creatinine clearance: unit not given here
# Procedure: as §1
# [6] = Right kidney weight of rats on day 35
# Procedure: as §2, with “weighing. […]” for “weighing.”
# Every 7 days during the experiment, the body weights of the animals were weighed and recorded, blood was taken from the tail vein, and serum was separated by centrifugation. The uric acid (UA), urea nitrogen (BUN), creatinine (CRE), xanthine oxidase (XOD), adenosine deaminase (ADA) and guanine deaminase (GuDa) in serum were detected. On day 35 of the experiment, the 24-hour urine of the rats was collected, the urine volume was measured, the pH value was determined, and the urinary uric acid level, urinary creatinine level, and urinary urea nitrogen level were detected. […]
smiles,measurement,setting,value
"CCc1oc2ccccc2c1C(=O)c1cc(Br)c(O)c(Br)c1 [Benzbromarone, benzbromarone]",serum uric acid level,"hyperuricemia model [1]; Day 0, modeling period",75.83 ± 38.77 µmol/L
same,serum uric acid level,"hyperuricemia model [1]; Day 7, modeling period",94.75 ± 25.26 µmol/L
same,serum uric acid level,"hyperuricemia model [1]; Day 14, modeling period",65.57±27.48^Δ µmol/L
same,serum uric acid level,"hyperuricemia model [1]; Day 14, modeling period, listed as benzbromarone",significant decrease
same,serum uric acid level,"hyperuricemia model [1]; Day 21, administration period",68.45 ± 22.20 µmol/L
same,serum uric acid level,"hyperuricemia model [1]; Day 28, administration period",79.65±24.68^Δ µmol/L
same,serum uric acid level,"hyperuricemia model [1]; Day 28, administration period, listed as benzbromarone",significant decrease
same,serum uric acid level,"hyperuricemia model [1]; Day 35, administration period",85.66±18.37^Δ µmol/L
same,serum uric acid level,"hyperuricemia model [1]; Day 35, administration period, listed as benzbromarone",significant decrease
same,body weight,"[2]; Day 0, modeling period",243.40 ± 7.63 g
same,body weight,"[2]; Day 7, modeling period",325.46 ± 15.10 g
same,body weight,"[2]; Day 14, modeling period",365.30 ± 20.19 g
same,body weight,"[2]; Day 21, administration period",391.83 ± 19.39 g
same,body weight,"[2]; Day 28, administration period",425.86 ± 22.33 g
same,body weight,"[2]; Day 35, administration period",433.88 ± 27.07 g
same,Serum creatinine,hyperuricemia model [3]; Day 21,99.21 ± 17.50 µmol/L
same,Serum urea nitrogen,hyperuricemia model [3]; Day 21,5.73 ± 1.02 mM
same,Serum creatinine,hyperuricemia model [3]; Day 35,74.54±25.76^Δ µmol/L
same,Serum urea nitrogen,hyperuricemia model [3]; Day 35,6.27 ± 1.62 mM
same,Serum creatinine,"hyperuricemia model [3]; Day 35, listed as benzbromarone",significant decrease
same,serum adenosine deaminase level,[4]; Day 21,54.22 ± 8.72 U/ml
same,serum adenosine deaminase level,[4]; Day 35,97.69 ± 15.32 U/ml
same,serum xanthine oxidase level,xanthine oxidase (XOD); Day 21,28.66 ± 3.75 U/L
same,serum xanthine oxidase level,xanthine oxidase (XOD); Day 35,20.61 ± 2.67 U/L
same,serum guanine deaminase activity,guanine deaminase (GuDa); Day 21,29.46 ± 3.57^Δ U/L
same,serum guanine deaminase activity,"guanine deaminase (GuDa); Day 21, listed as benzbromarone",significant decrease
same,serum guanine deaminase activity,guanine deaminase (GuDa); Day 35,11.46 ± 4.83 U/L
same,Creatinine clearance,hyperuricemia model [5],1.67 ± 1.18
same,Uric acid clearance,hyperuricemia model [5],0.155 ± 0.047
same,24-hour Urine volume,hyperuricemia model [5]; Day 35,117.80 ± 31.17 mL
same,urinary pH,hyperuricemia model [5]; Day 35,6.70 ± 0.71
same,UBUN (concentration of urinary urea nitrogen),hyperuricemia model [5]; day 35,156.36 ± 133.40 mmol/L
same,UCR (concentration of urinary creatinine),hyperuricemia model [5]; day 35,1256.25 ± 332.40 µmol/L
same,UUA (concentration of urinary uric acid),hyperuricemia model [5]; day 35,173.57 ± 56.65 µmol/L
same,right kidney Weight,[6],1.43 ± 0.10^ΔΔ g
